Holding throughout (type): cell-based, mouse
The subject of assay [1] is MFN2 KO MEFs. The experiment in a line: Lipidomics of lipid classes in MFN2 KO MEFs. Conditions: MFN2 KO cells; TSA 10 nM.
Assay [2] relates to MFN2 KO MEFs. The experiment in a line: MAM-dependent phospholipid synthesis, 3H-Ser incorporation into PtdSer and PtdEtn. The following applies: TSA 10 nM, 6 h, after 2 h and 4 h. How it is done: Both mitochondria and ER play key roles in the synthesis of phosphatidylserine (PtdSer), phosphatidylethanolamine (PtdEtn), and phosphatidylcholine (PtdCho). PtdSer is synthesized in the MAM; it then translocates to mitochondria, where it is converted to PtdEtn; PtdEtn then translocates back to the MAM, to generate PtdCho. To test the effect of MFN2 on phospholipid synthesis mediated by MAM, WT and MFN2 KO MEF cells were incubated for 2 h with serum-free medium to ensure removal of exogenous lipids. The medium was then replaced with MEM containing […] of 3H-serine for 2, 4 and 6 h. The cells were washed and collected in DPBS, pelleted at 2500×g for 5 min at 4° C., and resuspended in 0.5 ml water, removing a small aliquot for protein quantification. Lipid extraction was done by the Bligh and Dyer method. Briefly, three volumes of chloroform/methanol 2:1 were added to the samples and vortexed. […] The spots corresponding to the relevant phospholipids (identified using co-migrating standards) were scraped and counted in a scintillation counter (Packard Tri-Carb 2900TR). […] Therefore, to directly test the effect of MFN2 mutations on phospholipid synthesis mediated by MAM, control and MFN2 KO fibroblasts were incubated in medium containing 3H-serine and measured the incorporation of the label into newly synthesized 3H-PtdSer and 3H-PtdEtn after 2 and 4 h.

Assay [3] concerns Iqgap1 KO MEFs. The experiment in a line: MT plus end dynamics, GFP-tubulin live imaging, Iqgap1 KO MEFs. The following applies: Iqgap1 KO + TSA. How it is done:
(§1) Fibroblasts were transfected with pMSCV-puro-tagGFP-C4 α-tubulin plasmid to generate a green fluorescent protein (GFP)-tubulin stably expressing cell line. Live imaging of MT dynamics in transfected cells was performed at 37° C. and 5% CO2 for 5 min (5 s/f) with a 100×
(§2) PlanApo objective (numerical aperture 1.45) and an iXon X3 CCD camera (Andor, Belfast, United Kingdom) on a Nikon Eclipse Ti microscope controlled by Nikon's NIS-Elements software (Nikon, Tokyo, Japan). Movies were analyzed by ImageJ using a manual tracking plug-in. Dynamicity is calculated by dividing the sum of growth and shrinkage distances by MT lifetime.

Assay [4] deals with Iqgap1 KO MEFs. The experiment in a line: Mitochondria dynamics in Iqgap1 KO MEFs. The following applies: 10 nM TSA, 6 h, compared with TTL silencing. The procedure:
(§3) Mitochondria were labeled using MitoTracker™ Red CMROX according to manufacturer protocol (ThermoFisher Scientific) and detected by epifluorescence microscope equipped with 60× objective lens (Olympus IX81) and a monochrome CCD camera (Sensicam QE, Cooke Corporation). Aspect ratio (length/width) were measured in unedited image files by using Image J/FIJI. Brightness and contrast of the images were adjusted to optimize visualization of the mitochondrial segments and to reduce background noise. After selecting an individual cell, the Analyze Particles function (pixel size 10-infinity; circularity 0.00-1.00) was used to count the number of noncontiguous, discrete particles, and describe their shape. For mitochondrial distribution and displacement velocity mitochondria were live imaged for 3 min at 2 sec/frame at 37° C. A customized Mitoplot software was used for analyzing mitochondrial distribution by defining the center of cell and drawing a line towards periphery. Manual tracking plug-in in ImageJ/FIJI was used to analyze mitochondrial displacement velocity by selecting individual mitochondria.

The subject of assay [5] is acetylated tubulin in MFN2 KO MEFs. The experiment in a line: Acetylated tubulin levels by immunoblot and immunofluorescence in MFN2 KO MEFs. The following applies: MFN2 KO cells; 10 nM TSA, 6 h and 12 h (FIGS. 2A-2D). How it is done: (§4) Cells were fixed in 4% PFA for 15 min and permeabilized with 0.1% Triton X-100 for 5 min at R.T. For the MT cytoskeleton, cells were fixed in ice cold MetOH for 10′ prior to rehydration in PBS buffer. Cells were then washed in PBS, blocked in 2% FBS and 2% BSA in PBS for 1 h, stained with primary antibodies overnight at 4° C. followed by secondary antibodies for 1 h. Mounted samples were observed using a Zeiss LSM 800 confocal microscope using a 63× objective (Plan-Apochromat, NA 1.4). Z stack (0.5 um) images were acquired. To calculate the Mitotic Index as percentage, the number of cells in mitosis were divided by the total number of cells multiplied by 100. […] ROIs were selected in both channels to calculate mean fluorescence and integrated density prior to calculating corrected total fluorescence intensity (CTCF=Integrated Density−(Area of selected cell*Mean fluorescence of background readings). For measuring MT associated MB11 intensity, an ROI was selected along individual tyrosinated MTs using ImageJ and GTP tubulin (hMB11) pixel intensity was calculated along the tyrosinated tubulin signal and corrected by subtracting out background signal fluorescence intensity.
(§5) Cells were lysed in Laemmli sample buffer and boiled at 96° C. for 5 min. […] Image acquisition was performed with an Odyssey imaging system (LI-COR Biosciences, NE) and analyzed with Odyssey software.
For orientation: Immunoblotting shows a protein as a band on a membrane.

Assay [6] deals with MFN2 KO MEFs. The experiment in a line: Mitochondrial morphology, motility, distribution and association with MTs in MFN2 KO MEFs. The following applies: MFN2 KO cells. How it is done: For immunofluorescence staining of the MT cytoskeleton, cells were fixed in ice cold MetOH for 10′ prior to rehydration in PBS buffer. For all other staining, cells were fixed in 4% PFA for 15 min and permeabilized with 0.1% Triton X-100 for 5 min at R.T. Cells were then washed in PBS, blocked in 2% FBS and 2% BSA in PBS for 1 h, stained with primary antibodies overnight at 4° C. followed by secondary antibodies for 1 h. Mounted samples were observed using a Zeiss LSM 800 confocal microscope equipped with Airyscan module, using a 63× objective (Plan-Apochromat, NA 1.4). Z stack (0.2 um) images were acquired and processed using Zen Blue 2.1 software prior to analysis by ImageJ software. For 3D reconstruction, mitochondrial networks in individual cells were quantified by analyzing the network volume using Imaris software (Bitplane, Concord, MA). For line scan analysis, a line was drawn, and intensity was measured represented as gray values. The amount of fluorescence of the colocalizing pixels in each channel (Mander's coefficient) was calculated using ImageJ. The file was opened, and channels were split. Each select file was changed to 8-bit greyscale and max projection images was generated. Colocalization was assessed by Plugin co-localization finder. To calculate number of ATAT1 foci, each image was converted into an 8-bit greyscale image and ATAT1 signal thresholded until the foci appeared isolated from the background in a binary image. Both channels were then merged into one and the number of foci localizing in the merged stack quantified. To calculate ATAT1 localization with MFN2 on mitochondria, numbers of ATAT1 and MFN2 foci were quantified on each channel individually. Both channels were then merged into one and number of foci in the merged stack analyzed and quantified on mitochondria.
as §3

Assay [7] relates to acetylated tubulin in Iqgap1 KO MEFs. The experiment in a line: Acetylated tubulin levels in Iqgap1 KO MEFs. Conditions: 10 nM TSA, 6 h or 12 h. How it is done:
as §4, §5

Assay [8] deals with MFN2 KO MEFs. The experiment in a line: MT plus end dynamics, GFP-tubulin live imaging, MFN2 KO MEFs. The procedure: as §1, §2
Assay [9] concerns MFN2 KO MEFs. The experiment in a line: Mitochondria fusion by mitoDendra photoconversion in MFN2 KO MEFs. Conditions: MFN2 KO cells; TSA 10 nM, 6 h. From the text:
Dendra2 photoconversion and imaging utilized the protocol from Evrogen. Images were acquired with an Olympus spinning disk microscope EC-Plan-Neofluar 40X/1.3 oil. Z-stack acquisitions over-sampled each optical slice twice, and the Zen 2009 image analysis software was used for maximum z-projections. The 488 nm laser line and the 561 nm laser excited Dendra2 in the unconverted state and photo-converted state, respectively. To photo-switch Dendra2, a region was illuminated with the 405 nm line (4% laser power) for 90 bleaching iterations. The corrected total fluorescence intensity of both the channels was calculated using ImageJ and colocalization percentage was calculated.

In a further assay the test system is WT MEFs. The experiment in a line: MT plus end dynamics, GFP-tubulin live imaging, WT MEFs. The following applies: WT + TSA. How it is done: as §1, §2

Marks after values point to notes of the source that are not given here.

The values below come from US20260183429A1, “COMPOSITIONS FOR MODULATING ACETYLATED TUBULIN LEVELS AND METHODS THEREOF” (THE TRUSTEES OF COLUMBIA UNIVERSITY IN THE CITY OF NEW YORK, priority 2023, published 2026).

For `CC(/C=C/C(=O)NO)=C\[C@@H](C)C(=O)c1ccc(N(C)C)cc1` [TSA, trichostatin A], in the assay on MFN2 KO MEFs [1], the “changes in sphingomyelin, cholesterol, cholesteryl esters and ceramide levels” value is “rescued”. In addition, the “MAM-dependent phospholipid synthesis (3H-Ser into 3H-PtdSer and 3H-PtdEtn)” value with MFN2 KO MEFs [2] is reported as “failed to normalize”. Besides, in the assay on Iqgap1 KO MEFs [3], the “% Growth” value was 25.25 ± 1.54^b,y %, the “% Pause” value was 51.75 ± 1.10^b,y %, the “% Shrinkage” value is reported as 22.5 ± 0.86^b,y % and the Catastrophe frequency was determined as 0.06 ± 0.004 s⁻¹. In the assay with Iqgap1 KO MEFs [3], the Growth rate is on record as 0.095 ± 0.006^a,y μm/s, the MT dynamicity is reported as 3.77 ± 0.33^b,y μm/min, the MT lifetime amounted to 51.25 ± 1.79 s and the Rescue freq. is 0.08 ± 0.006 s⁻¹. Further, in the assay with Iqgap1 KO MEFs [3], the Shrinkage rate is 0.09 ± 0.004 μm/s. The mitochondria dynamics result in the assay with Iqgap1 KO MEFs [4] was “rescue of mitochondria dynamics”. In addition, in [5], the acetylated tubulin levels result is given as “normalized”. Besides, in the assay on MFN2 KO MEFs [6] (10 nM TSA, 6 h (FIGS. 2E, 2F)), the “co-localization of mitochondria with MTs” value is listed as “restored”. In the assay with MFN2 KO MEFs [6] (TSA 10 nM, 6 h), the “central and peripheral mitochondrial displacement velocity” value is “normalized”; the mitochondria distribution result was “normalized”; the mitochondria elongated morphology result was “partially reestablished”. In addition, in assay [7], the acetylated tubulin levels entry was “restoration of acetylated tubulin levels”. In addition, in the assay on MFN2 KO MEFs [8] (MFN2 KO + TSA), the “% Growth” value is listed as 22.4 ± 0.90^c,y %, the “% Pause” value is reported as 62.13 ± 1.68^c,y %, the “% Shrinkage” value is recorded as 16.05 ± 1.42^c,y % and the Catastrophe frequency is 0.05 ± 0.006 s⁻¹. In the assay on MFN2 KO MEFs [8] (MFN2 KO + TSA), the Growth rate is on record as 0.08 ± 0.005^a,y μm/s, the MT dynamicity is on record as 4.858 ± 0.46^c,y μm/min, the MT lifetime is 60.25 ± 1.43 ^ s and the Rescue freq. was found to be 0.09 ± 0.004 s⁻¹. Also, the Shrinkage rate with MFN2 KO MEFs [8] (MFN2 KO + TSA) was 0.08 ± 0.005^a,y μm/s. In the assay with MFN2 KO MEFs [8] (MFN2 KO cells + TSA (Table 3)), the MT dynamics entry was “normalized”. For the same compound, in the assay with MFN2 KO MEFs [9], the mitochondria fusion result is reported as “completely failed to recover”. For the same compound, in the assay with WT MEFs (Table 3), the “% Growth” value is 20.04 ± 1.28^c,x %, the “% Pause” value is reported as 63.5 ± 0.64^c,x %, the “% Shrinkage” value is reported as 18.25 ± 1.37^c,x % and the Catastrophe frequency was determined as 0.05 ± 0.004 s⁻¹. Further, in the assay with WT MEFs (Table 3), the Growth rate was determined as 0.04 ± 0.007 μm/s, the MT lifetime was found to be 56.5 ± 3.66 s, the Rescue freq. is 0.07 ± 0.006 s⁻¹ and the Shrinkage rate is recorded as 0.07 ± 0.008 μm/s. For the same compound, in the assay on WT MEFs (Table 4 (Iqgap1 series)), the “% Growth” value is on record as 23.75 ± 0.85^b,x %, the “% Pause” value is 50 ± 2.48^b,x %, the “% Shrinkage” value worked out at 27.25 ± 3.19% and the Catastrophe frequency amounted to 0.06 ± 0.003 s⁻¹. Further, in the assay with WT MEFs (Table 4 (Iqgap1 series)), the Growth rate is reported as 0.04 ± 0.004 μm/s, the MT dynamicity is on record as 3.32 ± 0.24^a,x μm/min, the MT lifetime is on record as 49.5 ± 2.32 s and the Rescue freq. was determined as 0.07 ± 0.007 s⁻¹. Also, in the assay with WT MEFs (Table 4 (Iqgap1 series)), the Shrinkage rate is recorded as 0.03 ± 0.004 μm/s.

Take `O=C(CCCCCCC(=O)Nc1ccc([C@H]2O[C@@H](CSc3nc(-c4ccccc4)c(-c4ccccc4)o3)C[C@@H](c3ccc(CO)cc3)O2)cc1)NO` [tubacin, Tubacin]: the “mitochondrial displacement velocity, distribution, aspect ratio and fusion compared with TSA” value in the assay on MFN2 KO MEFs [6] (tubacin 20 μM, 6 h (FIGS. 3F-3I)) was “Identical results”.
